“Also recorded” adds a separate entry of the source.
What was measured:
MsbA [1] = target: MsbA (Escherichia coli, UniProt P60752); details: cited from earlier work
MsbA [2] = target: T1, MsbA (Salmonella typhimurium, UniProt P63359); test: ATPase activity of detergent solubilized MsbA, linked enzyme assay; format: biochemical
T1 construct: 23-residue pET19b fusion leader with deca-histidine tag (N); made in house; host or cells: E. coli BL21 (DE3)
Experimental: ATPase Activity. ATPase activity was measured using an ATP-regenerating system described by Vogel and Steinhart, and modified by Urbatsch et al. Briefly, 1 μg of MsbA was added to 100 μl of Linked Enzyme (LE) buffer at 37° C. containing 10 mM ATP, 12 mM MgCl2, 6 mM phosphoenolpyruvate (PEP), 1 mM NADH, 10 units of lactate dehydrogenase (LDH), 10 units of pyruvate kinase (PK), and 50 mM Tris-HCl, pH 7.5. ATP hydrolysis was measured as the decrease in absorbance of NADH at 340 nm using a DXT880 multiplate spectrofluorimeter (Beckman-Coulter). Activity of MsbA in the presence of either E. coli polar lipids (10 μg/ml) or a non-ABC, ATPase inhibitor cocktail (1 mM EGTA, 1 mM NaN3, 0.2 mM ouabain) was measured (FIGS. 28-30). Each data point is the average of 5 independent measurements with standard error bars shown.

[3] = target: MsbA from Salmonella typhimurium (detergent solubilized, purified) (Salmonella typhimurium) (UniProt P63359); test: cell-based or functional assay
P-gp = details: human and murine MDR cell lines; cited from earlier work
[4] = system: ΔacrAB E. coli cells overexpressing MsbA; test: Doxorubicin retention in ΔacrAB E. coli cells overexpressing MsbA; format: cell-based; details: 0-100 μM PSC; change of fluorescence at 400 sec versus 0 sec; P<0.05
Experimental: Doxorubicin Retention. A pET 15b vector containing the msbA gene from Salmonella typhimurium LT2 was transformed into an E. coli strain deficient in the multiple-drug efflux pump AcrAB (ECΔacrAB). Single colony cultures were grown to optical density (OD600 nm) of 0.6 in the presence of 1 mM IPTG to induce overexpression of MsbA, harvested and washed three times with 100 mM potassium phosphate buffer (pH 7.5) containing 5 mM MgSO4 and concentrated to an OD600 of 20. Cellular accumulation of doxorubicin was accomplished by incubation of cells with 11.5 μM doxorubicin and 40 μM carbonyl cyanide m-chlorophenylhydrazone (CCCP) while shaking for 1 hour at 37° C. The cells were then washed three times and incubated for 15 minutes at 37° C. with 40 μM CCCP and 0, 1, 10, 25, 50 or 100 μM PSC. Efflux was initiated by addition of 25 mM glucose and fluorescence in the cell suspensions was monitored at 16-second time intervals with a DXT880 multiplate spectrofluorimeter (Beckman-Coulter) with excitation at 485 nm and emission at 595 nm for 900 seconds. […] Cellular doxorubicin retention was measured as a change of fluoresence at time=400 sec versus time=0 sec. […] Results are the average of 3 experiments, with 3-8 measurements per experiment. Statistical significance was assigned with the two-way analysis of variance (ANOVA). A P<0.05 is considered significant.

Wild type E. coli cells = test: Doxorubicin retention in wild type E. coli cells; format: cell-based; details: 50 μM PSC
[5] = target: the molecule itself; test: X-ray crystal structure of MsbA.ADP.Vi.Ra LPS, 4.2 Å

Chain of MsbA (Escherichia coli, UniProt P60752) (P60752 whole entry, species assumed): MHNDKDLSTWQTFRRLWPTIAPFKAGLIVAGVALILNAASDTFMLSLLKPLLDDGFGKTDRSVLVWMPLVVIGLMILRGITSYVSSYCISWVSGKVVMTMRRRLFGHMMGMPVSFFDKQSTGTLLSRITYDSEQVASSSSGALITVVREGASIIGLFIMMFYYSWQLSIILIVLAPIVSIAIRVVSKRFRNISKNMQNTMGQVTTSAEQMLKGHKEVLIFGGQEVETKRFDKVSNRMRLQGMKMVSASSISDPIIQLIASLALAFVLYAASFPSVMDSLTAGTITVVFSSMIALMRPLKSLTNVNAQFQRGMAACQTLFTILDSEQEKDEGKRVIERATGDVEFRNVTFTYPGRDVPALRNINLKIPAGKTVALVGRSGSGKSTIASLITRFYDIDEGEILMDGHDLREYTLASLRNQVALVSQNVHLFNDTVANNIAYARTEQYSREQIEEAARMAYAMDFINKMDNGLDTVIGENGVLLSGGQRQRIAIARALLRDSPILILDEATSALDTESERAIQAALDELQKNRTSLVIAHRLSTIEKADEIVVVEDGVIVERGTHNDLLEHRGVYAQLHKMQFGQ

lipid A
stimulation of MsbA ATPase (MsbA [1]; studies in vitro): specifically stimulated

COc1cccc2c1C(=O)c1c(O)c3c(c(O)c1C2=O)C[C@@](O)(C(=O)CO)C[C@@H]3O[C@H]1C[C@H](N)[C@H](O)[C@H](C)O1 [Doxorubicin, doxorubicin]
effect on ATPase activity (MsbA [2]): stimulates ATPase activity in a dose dependent manner | concentration of maximum stimulation of ATPase activity (MsbA [2]; dose dependent stimulation): 100 µM

PSC-833, [3'-Desoxy-3'-oxo-MeBmt]1-[Val]2-Ciclosporin (peptide)
ATPase activity of detergent solubilized MsbA (linked enzyme assay) (% over basal activity) [3]: < 55

CCCCCCCCCCCCCC(=O)O[C@H](CCCCCCCCCCC)CC(=O)O[C@@H]1[C@@H](NC(=O)C[C@@H](CCCCCCCCCCC)OC(=O)CCCCCCCCCCC)[C@H](OC[C@H]2O[C@H](OP(=O)(O)O)[C@H](NC(=O)C[C@H](O)CCCCCCCCCCC)[C@@H](OC(=O)C[C@H](O)CCCCCCCCCCC)[C@@H]2O)O[C@H](CO[C@]2(C(=O)O)C[C@@H](O[C@]3(C(=O)O)C[C@@H](O)[C@@H](O)[C@@H]([C@H](O)CO)O3)[C@@H](O)[C@@H]([C@H](O)CO)O2)[C@H]1OP(=O)(O)O [Kdo2-lipid A]
stimulatory effect on ATP activity of MsbA (MsbA [1]; compared with Ra LPS): larger stimulatory effect

C/C=C/C[C@@H](C)C(=O)[C@H]1C(=O)N[C@@H](C(C)C)C(=O)N(C)CC(=O)N(C)[C@@H](CC(C)C)C(=O)N[C@@H](C(C)C)C(=O)N(C)[C@@H](CC(C)C)C(=O)N[C@@H](C)C(=O)N[C@H](C)C(=O)N(C)[C@@H](CC(C)C)C(=O)N(C)[C@@H](CC(C)C)C(=O)N(C)[C@@H](C(C)C)C(=O)N1C [PSC, [3′-Desoxy-3′-oxo-MeBmt]^1-[Val]^2-Ciclosporin]
stimulation of ATPase over basal activity (MsbA [2]; PSC at concentrations of 50-250 μM, basal activity 1.25 μmol ATP/min/mg of protein): up to 55% | effect on MsbA ATPase activity (MsbA [2]; concentrations less than 50 μM): modulated | effect on doxorubicin stimulated ATPase activity of MsbA (MsbA [2]; doxorubicin stimulated): modulates doxorubicin stimulated ATPase activity | inhibition of P-gp mediated drug accumulation (P-gp): potent inhibitor | doxorubicin retention [4]: alters the retention of doxorubicin; also recorded: mediates doxorubicin retention | increase in doxorubicin retention (Wild type E. coli cells): less than 10%

B1: MsbA from Salmonella typhimurium (detergent solubilized, purified) (other)
chain: MHNDKDLSTWQTFRRLWPTIAPFKAGLIVAGIALILNAASDTFMLSLLKPLLDDGFGKTDRSVLLWMPLVVIGLMILRGITSYISSYCISWVSGKVVMTMRRRLFGHMMGMPVAFFDKQSTGTLLSRITYDSEQVASSSSGALITVVREGASIIGLFIMMFYYSWQLSIILVVLAPIVSIAIRVVSKRFRSISKNMQNTMGQVTTSAEQMLKGHKEVLIFGGQEVETKRFDKVSNKMRLQGMKMVSASSISDPIIQLIASLALAFVLYAASFPSVMDSLTAGTITVVFSSMIALMRPLKSLTNVNAQFQRGMAACQTLFAILDSEQEKDEGKRVIDRATGDLEFRNVTFTYPGREVPALRNINLKIPAGKTVALVGRSGSGKSTIASLITRFYDIDEGHILMDGHDLREYTLASLRNQVALVSQNVHLFNDTVANNIAYARTEEYSREQIEEAARMAYAMDFINKMDNGLDTIIGENGVLLSGGQRQRIAIARALLRDSPILILDEATSALDTESERAIQAALDELQKNRTSLVIAHRLSTIEQADEIVVVEDGIIVERGTHSELLAQHGVYAQLHKMQFGQ
notes: also called ST-MsbA; ABC Transporter MsbA
binding result [5]: binds
